Results on 19 compounds are retold here after patent US20140039007A1, “COMPOSITIONS AND METHODS FOR MODULATING FARNESOID X RECEPTORS” (priority 2010, published 2014).

In the test the target is T1, human GST-FXR LBD (Homo sapiens, UniProt Q96RI1).
T1 construct: purchased Invitrogen
T1 sequence (Q96RI1 193-472 isoform Q96RI1-2): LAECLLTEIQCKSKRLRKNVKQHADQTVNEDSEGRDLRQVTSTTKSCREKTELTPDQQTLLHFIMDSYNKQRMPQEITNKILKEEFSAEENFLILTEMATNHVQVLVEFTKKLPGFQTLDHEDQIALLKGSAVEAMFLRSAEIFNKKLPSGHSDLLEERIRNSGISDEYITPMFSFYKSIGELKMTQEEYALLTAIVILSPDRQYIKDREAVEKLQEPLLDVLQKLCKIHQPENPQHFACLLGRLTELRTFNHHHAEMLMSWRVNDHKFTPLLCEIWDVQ
Nature of the test: Human GST-FXR LBD Co-activator interaction Assay (FXR HTRF assay). It is filed as biochemical. The following applies: GST-FXR LBD / biotin-labeled SRC-1 peptide, response relative to GW4064. The source says: Human GST-FXR LBD Co-activator interaction Assay.
The FXR HTRF assay is a biochemical assay measuring the interaction between FXR and a coactivator protein (SRC1). The ligand-induced interaction with a coactivator protein is a critical step in transcriptional activation by FXR. Thus, this is an assay designed to measure FXR agonist activity of compounds.
Recombinant human Farnesoid X Receptor (FXR) ligand binding domain (amino acids 193-472) fused to glutathione S-transferase (GST) purified protein (GST-FXR LBD) was purchased (Invitrogen). The ligand-dependent interaction between GST-FXR LBD and a peptide derived from Steroid Receptor Coactivator-1 (SRC-1) was monitored by Fluorescence Resonance Energy Transfer (FRET). GST-FXR LBD was mixed with a biotin-labeled SRC-1 peptide (Sequence: Biotin-[…]-SPS-CONH2, American Peptide) in assay buffer (50 mM Tris HCl, pH 7.4, 50 mM NaCl, 1 mM TCEP and 0.2% bovine serum albumen) and plated in 384 black Proxi plates (Greiner Bio-One). Test compounds (in DMSO solution) and detection reagents (anti-GST-Cryptate labeled antibody and Streptavidin-XL665 conjugate; CisBio) were added in assay buffer containing 50 mM KF. Plates are incubated at room temperature in the dark for 2.5 hours before reading on an Envision (PerkinElmer) at 665 nm and 590 nm. The HTRF assay results were calculated from the 665 nm/590 nm ratio (ratio=(A665 nm/A590 nm)×10^4) and expressed in Delta F %=(Ratiosample−Rationegative)/Rationegative×100.
A negative control (without Streptavidin-XL665) was run with each assay and represented the background fluorescence. A reference FXR agonist, GW4064, was included in each experiment as positive control. The efficacy of each test compound was compared to that of GW4064. At each concentration, the relative activity of the test compound was expressed as Response %=(Rsample−RDMSO)/(Rpositive−RDMSO), where Rsample is the HTRF response, (expressed in Delta F %) for the test compound, Rpositive is the maximal response for GW4064 at saturating concentrations, and RDMSO is the response for DMSO control. The EC50 values were calculated using GraphPad Prism (GraphPad Software) using non-linear regression curve fit (log(agonist) vs. response−variable slope (four parameters)).
Background: Time-resolved FRET reads energy transfer from a long-lived donor to a nearby acceptor.

By EC50 is commonly meant the concentration needed to bring the measured effect to its halfway point. Regarding `O=C(O)C1CCC(c2nc(N3CCC(OCc4c(-c5c(Cl)cccc5Cl)noc4C4CC4)CC3)no2)C1` (stereo not shown) [Example 7B, 3-[3-(4-{[5-cyclopropyl-3-(2,6-dichlorophenyl)-1,2-oxazol-4-yl]methoxy}piperidin-1-yl)-1,2,4-oxadiazol-5-yl]cyclopentane-1-carboxylic acid], a half-maximal effect (EC50) was put at 1560 nM.

As to `COC(=O)C1CCC(c2nc(N3CCC(OCc4c(-c5c(Cl)cccc5Cl)noc4C4CC4)CC3)no2)C1` (stereo not shown) [Example 7A, methyl-3-[3-(4-{[5-cyclopropyl-3-(2,6-dichlorophenyl)-1,2-oxazol-4-yl]methoxy}piperidin-1-yl)-1,2,4-oxadiazol-5-yl]cyclopentane-1-carboxylate], the EC50 was found to be 1590 nM.

`O=C(O)c1ccc(-c2nc(N3CCC(OCc4c(-c5ccccc5OC(F)(F)F)noc4C4CC4)CC3)no2)s1` [Example 3B, 5-{3-[4-({5-cyclopropyl-3-[2-(trifluoromethoxy)phenyl]-1,2-oxazol-4-yl}methoxy)piperidin-1-yl]-1,2,4-oxadiazol-5-yl}thiophene-2-carboxylic acid] showed an EC50 of 275 nM.

Take `O=C(O)C1CCC(c2nc(N3CCC(OCc4c(-c5c(Cl)cccc5Cl)noc4C4CC4)CC3)no2)CC1` (stereo not shown) [Example 6B, 4-[3-(4-{[5-cyclopropyl-3-(2,6-dichlorophenyl)-1,2-oxazol-4-yl]methoxy}piperidin-1-yl)-1,2,4-oxadiazol-5-yl]cyclohexane-1-carboxylic acid]: it took 823 nM to reach a half-maximal effect (EC50).

As for `COC(=O)C1CCC(c2nc(N3CCC(OCc4c(-c5c(Cl)cccc5Cl)noc4C4CC4)CC3)no2)CC1` (stereo not shown) [Example 6A, methyl 4-[3-(4-{[5-cyclopropyl-3-(2,6-dichlorophenyl)-1,2-oxazol-4-yl]methoxy}piperidin-1-yl)-1,2,4-oxadiazol-5-yl]cyclohexane-1-carboxylate], the EC50 was 1620 nM.

In the case of `COC(=O)c1ccc(-c2nc(N3CCC(OCc4c(-c5c(Cl)cccc5Cl)noc4C4CC4)CC3)no2)s1` [Example 8A, methyl 5-[3-(4-{[5-cyclopropyl-3-(2,6-dichlorophenyl)-1,2-oxazol-4-yl]methoxy}piperidin-1-yl)-1,2,4-oxadiazol-5-yl]thiophene-2-carboxylate], it took 2950 nM to reach a half-maximal effect (EC50).

`COC(=O)c1ccc(-c2nc(N3CCC(OCc4c(-c5ccccc5OC(F)(F)F)noc4C4CC4)CC3)no2)cc1` [Example 1A, Methyl 4-(3-(4-((5-cyclopropyl-3-(2-(trifluoromethoxy)phenyl)isoxazol-4-yl)methoxy)piperidin-1-yl)-1,2,4-oxadiazol-5-yl)benzoate] registered an EC50 of 2380 nM.

Compound `COC(=O)c1cccc(-c2nc(N3CCC(OCc4c(-c5c(Cl)cccc5Cl)noc4C4CC4)CC3)no2)n1` [Example 9A, methyl 6-[3-(4-{[5-cyclopropyl-3-(2,6-dichlorophenyl)-1,2-oxazol-4-yl]methoxy}piperidin-1-yl)-1,2,4-oxadiazol-5-yl]pyridine-2-carboxylate] came in with an EC50 of 463 nM.

Regarding `O=C(O)c1cccc(-c2nc(N3CCC(OCc4c(-c5ccccc5OC(F)(F)F)noc4C4CC4)CC3)no2)c1` [Example 2B, 3-{3-[4-({5-cyclopropyl-3-[2-(trifluoromethoxy)phenyl]-1,2-oxazol-4-yl}methoxy)piperidin-1-yl]-1,2,4-oxadiazol-5-yl}benzoic acid], the EC50 amounted to 128 nM.

For the compound `O=C(O)c1ccc(-c2nc(N3CCC(OCc4c(-c5c(F)cccc5F)noc4C4CC4)CC3)no2)cc1` [Example 10, 4-[3-(4-{[5-cyclopropyl-3-(2,6-difluorophenyl)-1,2-oxazol-4-yl]methoxy}piperidin-1-yl)-1,2,4-oxadiazol-5-yl]benzoic acid], the EC50 worked out at 934 nM.

In turn, `O=C(O)c1ccc(-c2nc(N3CCC(OCc4c(-c5c(Cl)cccc5Cl)noc4C4CC4)CC3)no2)s1` [Example 8B, 5-[3-(4-{[5-cyclopropyl-3-(2,6-dichlorophenyl)-1,2-oxazol-4-yl]methoxy}piperidin-1-yl)-1,2,4-oxadiazol-5-yl]thiophene-2-carboxylic acid] had an EC50 of 105 nM.

Consider `COC(=O)c1cccc(-c2nc(N3CCC(OCc4c(-c5ccccc5OC(F)(F)F)noc4C4CC4)CC3)no2)c1` [Example 2A, methyl 3-{3-[4-({5-cyclopropyl-3-[2-(trifluoromethoxy)phenyl]-1,2-oxazol-4-yl}methoxy)piperidin-1-yl]-1,2,4-oxadiazol-5-yl}benzoate], for which the EC50 was 2020 nM.

For the compound `O=C(O)c1ccc(-c2nc(N3CCC(OCc4c(-c5ccccc5OC(F)(F)F)noc4C4CC4)CC3)no2)cc1` [Example 1B, 4-(3-(4-((5-cyclopropyl-3-(2-(trifluoromethoxy)phenyl)isoxazol-4-yl)methoxy)piperidin-1-yl)-1,2,4-oxadiazol-5-yl)benzoic acid], the EC50 amounted to 90 nM.

For `O=C(O)c1ccc(-c2nc(N3CCC(OCc4c(-c5ccccc5C(F)(F)F)noc4C4CC4)CC3)no2)cc1` [Example 11, 4-{3-[4-({5-cyclopropyl-3-[2-(trifluoromethyl)phenyl]-1,2-oxazol-4-yl}methoxy)piperidin-1-yl]-1,2,4-oxadiazol-5-yl}benzoic acid], the response was half-maximal at 587 nM (EC50).

For the compound `O=C(O)c1cccc(-c2nc(N3CCC(OCc4c(-c5c(Cl)cccc5Cl)noc4C4CC4)CC3)no2)n1` [Example 9B, 6-[3-(4-{[5-cyclopropyl-3-(2,6-dichlorophenyl)-1,2-oxazol-4-yl]methoxy}piperidin-1-yl)-1,2,4-oxadiazol-5-yl]pyridine-2-carboxylic acid], a half-maximal effect (EC50) was put at 128 nM.

For the compound `O=C(O)c1cccc(-c2nc(N3CCC(OCc4c(-c5c(Cl)cccc5Cl)noc4C4CC4)CC3)no2)c1` [Example 5B, 3-[3-(4-{[5-cyclopropyl-3-(2,6-dichlorophenyl)-1,2-oxazol-4-yl]methoxy}piperidin-1-yl)-1,2,4-oxadiazol-5-yl]benzoic acid], the midpoint of the response, the EC50, lay at 60 nM.

For `O=C(O)c1ccc(-c2nc(N3CCC(OCc4c(-c5c(Cl)cccc5Cl)noc4C4CC4)CC3)no2)cc1` [Example 4B], the response was half-maximal at 114 nM (EC50).

For the compound `COC(=O)c1ccc(-c2nc(N3CCC(OCc4c(-c5ccccc5OC(F)(F)F)noc4C4CC4)CC3)no2)s1` [Example 3A, methyl 5-{3-[4-({5-cyclopropyl-3-[2-(trifluoromethoxy)phenyl]-1,2-oxazol-4-yl}methoxy)piperidin-1-yl]-1,2,4-oxadiazol-5-yl}thiophene-2-carboxylate], the response was half-maximal at 946 nM (EC50).

`COC(=O)c1ccc(-c2nc(N3CCC(OCc4c(-c5c(Cl)cccc5Cl)noc4C4CC4)CC3)no2)cc1` [Example 4A] returned an EC50 of 812 nM.
